Consider 38 compounds from ChEMBL document CHEMBL1145177, “Further naphthylcombretastatins. An investigation on the role of the naphthalene moiety” (J Med Chem, 2005).

One test concerns A549. The test can be described thus: Inhibitory concentration value against human A-549 tumor cell line. The format is functional, cell-based.
The test system of another test is P388. The test is described as follows: Inhibitory concentration value against murine P-388 tumor cell line. It is filed as functional, cell-based. The note with it: Mus musculus.
The subject of the next test is HT-29. The test is described as follows: Inhibitory concentration value against human colon adenocarcinoma HT-29 tumor cell line. The format is functional, cell-based.
The next test concerns HL-60. The test is described as follows: Inhibitory concentration value against human colon carcinoma H-116 or human cancer HL-60 tumor cell line. It is filed as functional, cell-based.
Test [1] can be described thus: Inhibitory concentration value against human MEL-28 or human cancer HeLa tumor cell line. It is filed as functional, cell-based.
Another test deals with Tubulin beta chain (Bos taurus, UniProt Q6B856). The test can be described thus: In vitro inhibitory concentration value against bovine brain tubulin polymerization.
Tubulin beta chain, sequence (Q6B856 whole entry): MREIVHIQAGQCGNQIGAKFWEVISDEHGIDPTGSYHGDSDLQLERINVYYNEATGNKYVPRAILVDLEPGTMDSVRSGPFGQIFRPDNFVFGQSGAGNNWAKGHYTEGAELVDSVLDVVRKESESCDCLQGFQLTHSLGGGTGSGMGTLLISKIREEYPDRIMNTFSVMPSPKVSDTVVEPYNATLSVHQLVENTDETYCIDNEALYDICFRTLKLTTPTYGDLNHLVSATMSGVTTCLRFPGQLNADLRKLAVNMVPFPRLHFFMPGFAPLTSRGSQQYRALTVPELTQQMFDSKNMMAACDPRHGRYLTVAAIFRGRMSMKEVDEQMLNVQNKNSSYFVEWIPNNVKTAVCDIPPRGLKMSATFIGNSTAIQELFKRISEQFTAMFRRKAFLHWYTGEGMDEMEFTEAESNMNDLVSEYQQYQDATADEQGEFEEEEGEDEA
For another test, the system named is HCT-116. The test can be described thus: Inhibitory concentration value against human colon carcinoma H-116 tumor cell line. It is filed as functional, cell-based.
The test system of a further test is SK-MEL-28. The test is described as follows: Inhibitory concentration value against human MEL-28 tumor cell line. The format is functional, cell-based.

Turning to `COc1cc(/C=C\c2ccc3ccccc3c2)cc(NC(C)=O)c1OC`, the 50% inhibitory concentration (IC50) (in the test with A549; with P388; with HT-29; with HL-60; in test [1]) was > 5 µM each time.
On to `COc1cc(/C=C/c2c[nH]c3ccccc23)cc(OC)c1OC`, for which the half-maximal inhibitory concentration (IC50) (in the test on A549; with P388; in the test with HT-29; in the test with HL-60; in test [1]) was 3.23 µM each time.
As to `COc1cc(/C=C\c2ccc3c(ccn3C)c2)cc(OC)c1OC`, the IC50 (as a rule, the point on the concentration scale where inhibition reaches its midpoint) against Tubulin beta chain was 2 µM; in the test on HL-60, 0.33 µM; in test [1], 0.25 µM.
As for `COc1cccc(/C=C\c2ccc3ccccc3c2)c1`, the IC50 is 1.92 µM in the test on HCT-116; 1.92 µM with A549; 1.92 µM with P388; 1.92 µM in the test with HT-29; > 30 µM against Tubulin beta chain; 1.92 µM in the test with SK-MEL-28.
Regarding `COc1c(N)cc(/C=C\c2ccc3ccccc3c2)cc1N`, the half-inhibitory concentration (IC50) in the test on A549 is > 5 µM; in the test on P388, 5 µM; with HT-29, > 5 µM; in the test with HL-60 it was 5 µM; in test [1], > 5 µM.
For the compound `COc1c([N+](=O)[O-])cc(/C=C\c2ccc3ccccc3c2)cc1[N+](=O)[O-]`, the IC50 (in the test with A549; in the test with P388; with HT-29; in the test with HL-60; in test [1]) was > 5 µM throughout.
Regarding `COc1ccc(/C=C/c2cc(OC)c3ccccc3c2)cc1O`, the half-maximal inhibitory concentration (IC50) in the test with HCT-116, in the test on A549, in the test with P388, in the test with HT-29, in the test with SK-MEL-28 and in the test with HL-60 was 3.62 µM each time. In test [1], this compound came in with a half-maximal inhibitory concentration (IC50) of 3.62 µM.
For `COc1cc(/C=C\c2ccc3c(ccn3S(=O)(=O)c3ccccc3)c2)cc(OC)c1OC`, the IC50 (with A549; in the test with P388; in the test on HT-29; with HL-60; in test [1]) was > 5 µM in each case.
`COc1cc(/C=C/c2ccc(N(C)C)c([N+](=O)[O-])c2)cc(OC)c1OC`: the IC50 (with A549; in the test with P388; in the test on HT-29; in the test on HL-60; in test [1]) was > 5 µM each time.
For `COc1cc(/C=C/c2ccc3ccccc3c2)cc(NC(C)=O)c1OC`, the IC50 is > 5 µM with A549; > 5 µM with P388; > 5 µM in the test on HT-29; 2.88 µM in the test with HL-60; > 5 µM in test [1].
As for `COc1cc(/C=C\c2cn(C)c3ccccc23)cc(OC)c1OC`, the 50% inhibitory concentration (IC50) (in the test with A549; with P388; with HT-29; in the test on HL-60; in test [1]) was 3.09 µM throughout.
For the compound `COc1c(N)cc(/C=C/c2ccc3ccccc3c2)cc1N`, the IC50 (in the test on A549; with P388; in the test on HT-29; in the test on HL-60; in test [1]) was > 5 µM throughout.
As to `COc1cc(/C=C/c2ccc3[nH]ccc3c2)cc(OC)c1OC`, the 50% inhibitory concentration (IC50) is 0.47 µM in the test on A549; 0.28 µM in the test on HT-29; > 30 µM on Tubulin beta chain; 0.38 µM in the test on HL-60; 0.25 µM in test [1].
On to `COc1cc(/C=C\c2ccc3ccccc3c2)ccc1F`, for which the IC50 is 0.45 µM with HCT-116; 0.45 µM in the test with A549; 0.45 µM in the test on P388; 0.45 µM in the test with HT-29; > 30 µM against Tubulin beta chain; 0.45 µM in the test with SK-MEL-28.
As for `CN(C)c1c([N+](=O)[O-])cc(/C=C/c2ccc3ccccc3c2)cc1[N+](=O)[O-]`, the IC50 (with A549; in the test on P388; with HT-29; with HL-60; in test [1]) was > 5 µM each time.
As for `COc1cc(/C=C/c2cn(C(C)=O)c3ccccc23)cc(OC)c1OC`, the IC50 (in the test on A549; in the test on P388; in the test with HT-29; in the test on HL-60; in test [1]) was > 5 µM throughout.
With `C(=C\c1ccc2ccccc2c1)/c1ccc2c(c1)-c1ccccc1C2`, the IC50 with HCT-116, in the test on A549, with P388, in the test on HT-29 and with SK-MEL-28 was > 5 µM each time.
On to `Cn1ccc2cc(/C=C/c3ccc4ccccc4c3)ccc21`, for which the concentration for half-maximal inhibition (IC50) in the test with HCT-116 was > 5 µM; in the test with A549 it was 3.53 µM; with P388, > 5 µM; in the test with HT-29, > 5 µM; in the test with SK-MEL-28, > 5 µM.
Turning to `COc1cc(/C=C\c2ccc(N(C)C)c([N+](=O)[O-])c2)cc(OC)c1OC`, the concentration for half-maximal inhibition (IC50) (with A549; with P388; with HT-29; in the test with HL-60; in test [1]) was > 5 µM throughout.
As for `O=S(=O)(c1ccccc1)n1ccc2cc(/C=C/c3ccc4ccccc4c3)ccc21`, the IC50 in the test with HCT-116, with A549, with P388, in the test on HT-29 and in the test with SK-MEL-28 was > 5 µM throughout.
For `COc1cc(/C=C/c2cn(C)c3ccccc23)cc(OC)c1OC`, the 50% inhibitory concentration (IC50) (with A549; in the test on P388; in the test with HT-29; in the test with HL-60; in test [1]) was 3.09 µM each time.
With `COc1cc(/C=C\c2ccc(N(C)C)c(N)c2)cc(OC)c1OC`, the IC50 with A549 is 0.004 µM; with HT-29 it was 0.004 µM; on Tubulin beta chain it was > 30 µM; with HL-60, 0.003 µM; in test [1], 0.003 µM.
For the compound `COc1cc(/C=C\c2cn(C(C)=O)c3ccccc23)cc(OC)c1OC`, the half-maximal inhibitory concentration (IC50) (with A549; in the test with P388; in the test with HT-29; with HL-60; in test [1]) was 2.85 µM throughout.
In the case of `COc1cc(/C=C\c2ccc3ccccc3c2)cc(N)c1OC`, the concentration for half-maximal inhibition (IC50) stood at 1.64 µM with A549; 1.64 µM in the test with P388; 0.33 µM in the test with HT-29; 0.33 µM in the test on HL-60; 1.64 µM in test [1].
As to `COc1c([N+](=O)[O-])cc(/C=C/c2ccc3ccccc3c2)cc1[N+](=O)[O-]`, the concentration for half-maximal inhibition (IC50) (with A549; in the test with P388; in the test on HT-29; in the test with HL-60; in test [1]) was > 5 µM throughout.
For the compound `C(=C\c1ccc2ccccc2c1)/c1ccoc1`, the IC50 in the test with HCT-116, with A549, in the test with P388, in the test on HT-29 and in the test on SK-MEL-28 was > 5 µM in each case.
As to `COc1cc(/C=C\c2c[nH]c3ccccc23)cc(OC)c1OC`, the IC50 (in the test on A549; in the test on P388; with HT-29; in the test with HL-60; in test [1]) was 3.23 µM in each case.
Take `COc1cc(/C=C/c2occc2C)cc(OC)c1OC`: the half-inhibitory concentration (IC50) (in the test with A549; in the test on P388; with HT-29; in the test on HL-60; in test [1]) was 3.65 µM each time.
Turning to `COc1cc(/C=C/c2ccc3c(ccn3S(=O)(=O)c3ccccc3)c2)cc(OC)c1OC`, the IC50 (with A549; in the test on P388; in the test on HT-29; with HL-60; in test [1]) was > 5 µM in each case.
For the compound `COc1cc(/C=C/c2ccc(N(C)C)c(N)c2)cc(OC)c1OC`, the IC50 in the test on A549 is 1.52 µM; with P388 it was 1.52 µM; with HT-29, 0.3 µM; in the test with HL-60, 1.52 µM; in test [1], 1.52 µM.
As to `CN(C)c1c([N+](=O)[O-])cc(/C=C\c2ccc3ccccc3c2)cc1[N+](=O)[O-]`, the IC50 is > 5 µM in the test with A549; > 5 µM with P388; 2.75 µM in the test with HT-29; 2.75 µM in the test on HL-60; > 5 µM in test [1].
Regarding `COc1cc(/C=C\c2ccc3c(c2)c2ccccc2n3C)cc(OC)c1OC`, the IC50 in the test with A549 is > 10 µM; in the test on HT-29 it was > 10 µM; on Tubulin beta chain, 6 µM; with HL-60, > 10 µM; in test [1], 3.1 µM.
Take `Cn1c2ccccc2c2cc(/C=C/c3ccc4ccccc4c3)ccc21`: the IC50 in the test with HCT-116, in the test on A549, in the test on P388, in the test with HT-29 and with SK-MEL-28 was > 5 µM in each case.
For the compound `COc1cc2ccc(CCc3ccc4ccccc4c3)cc2cc1O`, the half-maximal inhibitory concentration (IC50) in the test on HCT-116, in the test with A549, with P388, with HT-29, in the test on SK-MEL-28 and in the test with HL-60 was 3.59 µM throughout. In test [1], this compound came in with a 50% inhibitory concentration (IC50) of 3.59 µM.
Regarding `COc1cc(/C=C\c2ccc3[nH]ccc3c2)cc(OC)c1OC`, the IC50 with A549 stood at 0.39 µM; in the test on HT-29 it was 0.035 µM; against Tubulin beta chain, 25 µM; in the test on HL-60, 0.035 µM; in test [1] it was 0.034 µM.
Take `COc1cc(/C=C/c2ccc3c(ccn3C)c2)cc(OC)c1OC`: the results for the IC50 (against Tubulin beta chain; with HL-60; in test [1]) were 30 µM, 0.027 µM and 0.024 µM, respectively.
With `COc1cc(CCc2ccc3ccccc3c2)cc(OC)c1OC`, the IC50 in the test with HCT-116, with A549, with P388, in the test with HT-29, in the test with SK-MEL-28 and in the test on HL-60 was 0.31 µM in each case. Further, the concentration for half-maximal inhibition (IC50) in test [1] turned out to be 0.31 µM.
`COc1cc(/C=C/c2ccc3ccccc3c2)cc(OC)c1OC`: the concentration for half-maximal inhibition (IC50) with HCT-116, with A549, with P388, in the test with HT-29, in the test with SK-MEL-28 and in the test on HL-60 was 0.39 µM in each case. In test [1], this compound had a 50% inhibitory concentration (IC50) of 0.39 µM.
